# Results from patent publication US11807873B2, “Conversion of S-lignin compounds to useful intermediates” (Alliance for Sustainable Energy, LLC, priority 2020, dated 2023).
# T1: PcaHG (PCA 3,4-dioxygenase) (Pseudomonas putida, UniProt P00436+P00437)
# T1 construct: poly-histidine tag with TEV protease site (N, cleaved yes); made in house; host or cells: E. coli BL-21 λ(DE3)
# T1 sequence (P00437 1-239): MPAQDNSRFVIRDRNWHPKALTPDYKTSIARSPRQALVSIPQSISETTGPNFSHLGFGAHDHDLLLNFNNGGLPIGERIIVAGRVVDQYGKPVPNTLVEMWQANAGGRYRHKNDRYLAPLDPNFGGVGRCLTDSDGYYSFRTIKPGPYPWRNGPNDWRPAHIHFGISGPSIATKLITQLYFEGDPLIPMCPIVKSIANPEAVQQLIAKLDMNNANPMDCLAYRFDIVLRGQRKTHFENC
# T1 sequence (P00436 2-201 limits assumed): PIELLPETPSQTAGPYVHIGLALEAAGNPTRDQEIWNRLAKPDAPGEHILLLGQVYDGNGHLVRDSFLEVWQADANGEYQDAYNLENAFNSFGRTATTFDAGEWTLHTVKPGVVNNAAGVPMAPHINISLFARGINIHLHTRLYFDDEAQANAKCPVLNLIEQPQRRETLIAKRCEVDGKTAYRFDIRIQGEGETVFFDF
# B1: PcaHG (PCA 3,4-dioxygenase) (Pseudomonas putida) (protein)
# chain 1: T1 sequence (P00437 1-239)
# chain 2: T1 sequence (P00436 2-201 limits assumed)
# notes: poly-histidine tag with TEV protease site (N, cleaved yes); made in house; host or cells: E. coli BL-21 λ(DE3)
# B2: GalA (gallate 3,4-dioxygenase) (Pseudomonas putida KT2440) (protein)
# chain: MARIIGGLAVSHTPTIGFAVDHDKQEEAAWAPIFESFEPIRTWLQQRQPDVLFYIFNDHITSFFFDHYSAFTLGVDEQYGVADEGGNPRDLPPVGGHAALSRHIGQSLMADEFDMSFFRDKPLDHGFFSPMSALLPCDESWPVQIVPLQVGVLQLPIPTARRCYKLGQALRRAIESYPEDLKVAIVATGGVSHQVHGERCGFNNPEWDAQFLDLLVNDPQRLTEMTLAEYATLGGMEGAEVITWLIMRGTLSANVERKHQSYYLPSMTGIATLLLENRDQALPAPVNERHRQHMQHQLAGAEQLEGTYPYTLERSAKGYRLNKFLHRMIEPQWRQRFLSEPEALYREAGLSEEESDLLRRRDWRGLIHYGVIFFVLEKLGAVLGVSNLDIYAAMRGQSIEDFMKTRNQQVRYSVAGKAPN
# Tests used:
# [1] = test system: wild-type P. putida KT2440; experiment: Toxicity effects on growth of wild-type strain (OD600); type: cell-based, Pseudomonas putida KT2440; details: M9 minimal media, 20 mM glucose
# Experimental: Error bars represent the absolute value of two biological replicates.
# Bacterial strains, media, and cultivations: Pseudomonas putida KT2440 (ATCC® 47054) was utilized as the wild-type and base strain for all further engineering. Gene deletion, insertion, or replacements in P. putida KT2440 were performed using the antibiotic/sacB counter-selection method as previously described. Diagnostic colony PCR was performed with MyTaq® HS Red Mix (Bioline, USA) to confirm gene deletion, insertion, or replacement (see Table 3 and Table 8). M9 minimal medium was prepared as 6.78 g/L Na2HPO4, 3 g/L KH2PO4, 0.5 g/L NaCl, 1 g/L NH4Cl, 2 mM MgSO4, 100 μM CaCl2), and 18 μM FeSO4, pH 7.0. […] Sodium formate (Sigma, USA) was used to prepare formate stocks in water. Stocks of syringaldehyde were made in 2% (v/v) DMSO. Glucose at 1 M concentration (Sigma, USA) was prepared in water. All carbon sources were 0.2 μm filtered prior to media addition. KT2440 strains were revived from glycerol stocks in LB medium overnight at 30° C. prior to washing in M9 minimal medium. Washed cells were inoculated to an OD600 of 0.1 in 25 mL of M9 minimal media supplemented with the specified carbon/energy source in 125 mL baffled flasks and incubated at 30° C., 225 rpm in biological duplicate or triplicate, as indicated. In the case of 3MGA, the culture volume was reduced to 10 mL in 50 mL baffled flasks due to the cost of this substrate. […] In the case of formate feeding, cultivations were subsequently pH adjusted to pH 7.1-7.3 with formic acid, which provided an additional 0.13-1.75 mmol of formate. To measure cell growth and quantify metabolites, cultures were sampled by removing 1 mL, measuring OD600 of a 1:10 or 1:100 dilution, centrifuging to pellet the cells, and blanking with the OD600 of the supernatant to account for darkening of some cultures due to oxidation of intermediates.
# In vivo reactions: Wild-type P. putida KT2440 and engineered strains were cultivated overnight in LB medium and centrifuged. […] Flasks were inoculated to an OD600 of 0.1 and incubated at 30° C., 225 rpm. Cultures were sampled periodically by removing 1 mL that was used to measure the OD600 as well as metabolite analysis (see below). Shake flask experiments were performed in triplicate. In the case of 3-MGA, the culture was downscaled to 10 mL in 50 mL baffled flasks and performed in duplicate.
# [2] = molecular target: T1, PcaHG (PCA 3,4-dioxygenase); experiment: PcaHG steady-state kinetics, oxygraph and spectrophotometric assays; type: biochemical, P. putida KT2440
# Experimental: (§4) Steady-state kinetic analyses: Kinetic assays were performed by monitoring the consumption of O2 using a Clark-type polarographic O2 electrode OXYG1 (Hansatech) connected to a circulating water bath. Assays with the exception of GalA were performed in 1 mL of air-saturated 40 mM HEPES, 80 mM NaCl (I=0.1 M, pH 7.5) at 25° C. GalA assays were performed in 40 mM MOPS, 80 mM NaCl (I=0.1 M, pH 7.0) at 30° C. The electrode was calibrated daily according to the manufacturer's instructions using air-saturated buffer and water depleted of 02 via addition of sodium hydrosulfite. Stock solutions were prepared fresh daily. The background rate of O2-consumption was recorded prior to initiating the reaction and was subtracted from the measured reaction rate. Steady-state kinetic parameters were evaluated by fitting the Michaelis-Menten equation to the data using the least-squares fitting of LEONORA.
# (§5) Stock solutions of the substrates were made in dimethylsulfoxide (DMSO). The final concentration of DMSO in the assay solutions was <1% (v/v). […] The reaction was initiated by adding 0.1 μM PcaHG.
# [3] = molecular target: T2, VanAB (vanillate O-demethylase) (Pseudomonas putida, UniProt Q88GI6); experiment: VanAB steady-state kinetics, O2 consumption (oxygraph)
# T2 sequence (Q88GI6 entry or part of it): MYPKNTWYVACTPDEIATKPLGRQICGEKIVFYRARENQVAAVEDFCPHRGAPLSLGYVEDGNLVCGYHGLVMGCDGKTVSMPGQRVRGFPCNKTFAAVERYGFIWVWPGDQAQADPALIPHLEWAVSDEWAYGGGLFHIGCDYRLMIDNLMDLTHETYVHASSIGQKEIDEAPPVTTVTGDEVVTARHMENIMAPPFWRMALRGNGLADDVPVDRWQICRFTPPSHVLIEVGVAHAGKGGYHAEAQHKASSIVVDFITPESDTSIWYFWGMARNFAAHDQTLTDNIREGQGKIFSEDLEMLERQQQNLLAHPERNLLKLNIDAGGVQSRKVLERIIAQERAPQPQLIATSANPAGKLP
# T2 sequence (Q88GI5 entry or part of it, further chain): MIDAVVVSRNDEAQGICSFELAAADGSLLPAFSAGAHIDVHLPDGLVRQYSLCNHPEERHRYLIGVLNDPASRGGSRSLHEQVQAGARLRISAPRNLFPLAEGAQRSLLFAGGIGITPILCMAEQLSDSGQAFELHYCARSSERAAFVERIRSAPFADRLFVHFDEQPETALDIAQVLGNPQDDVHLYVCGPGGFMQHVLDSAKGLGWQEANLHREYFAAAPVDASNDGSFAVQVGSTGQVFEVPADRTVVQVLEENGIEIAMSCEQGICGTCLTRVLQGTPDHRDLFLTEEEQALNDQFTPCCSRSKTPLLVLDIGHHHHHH
# Experimental: In evaluating the parameters for VA, 0.4 μM VanA was used to ensure steady-state conditions at low concentrations of VA.
# as §4
# For VanAB, the standard reaction contained 1 μM VanA, 2 μM Ht-VanB, and 400 μM NADH. […] Stock solutions of the substrates were made in dimethylsulfoxide (DMSO). The final concentration of DMSO in the assay solutions was <1% (v/v). For PcaHG, the standard reaction contained 250 μM PCA. The reaction was initiated by adding 0.1 μM PcaHG. […] The reaction was initiated by adding 0.05 μM GalA.
# [4] = molecular target: GalA (gallate 3,4-dioxygenase) (Pseudomonas putida, UniProt Q88JX5); experiment: GalA inactivation kinetic analyses during turnover; type: biochemical
# Text: (§1) GalA preparations had 0.5 equivalents of Fe per mol GalA. GalA cleaved GA with 3-fold higher specificity (˜9×10^5 s^−1 M^−1, see Table 3, FIG. 20) than previously reported. The partition ratio for GA was ˜1900 based on 02 consumption for given amount of GalA (see Table 3, Equation 1). […] Because high concentrations of GalA were needed to detect 3MGA-cleavage activity, cell lysates were used to investigate the inactivation of GalA by 3MGA. Importantly, the inactivation of GalA by GA was similar for the purified enzyme in E. coli lysate (j3^app˜3×10^−2 s^−1, Table 3, FIG. 21). The apparent rate constant of inactivation of GalA by 3MGA was less than 50% higher than for GA (see Table 3).
# Inactivation kinetic analyses: GalA inactivation assays were performed by monitoring consumption of 02 using OXYG1 as described in Steady-state kinetic analyses. […] To obtain soluble E. coli lysate containing GalA, 50 mL of culture was suspended in ˜900 μL of 50 mM HEPPS, pH 8.0, 100 mM NaCl. The resuspension was pipetted into a 1.5 mL screw cap tube containing ˜100 μL of 0.1 mm silica sand. Cell were lysed using a Bead Beater rotor (MP Biomedical). Cellular debris and sand were removed by centrifugation. The clarified was removed to a micro centrifuge tube and kept on ice until use.
# (§2) The amount of GalA added to the assay was such that the enzyme was completely inactivated before 10% of either the catecholic substrate or 02 was consumed in the reaction mixture. The partition ratio was calculated using Equation 1 shown above.
# (§3) The apparent apparent rate constant of inactivation during catalytic turnover in air-saturated buffer, j3^app, was determined by fitting Equation 2 to reaction progress curves where St is the substrate concentration at time t. st=(s0−s∞)e^−j^3^app^t+s∞ Equation 2
# [5] = molecular target: T2, VanAB (vanillate O-demethylase); experiment: VanAB coupling of O-demethylation to O2 consumption (HPLC-based assay); type: biochemical, P. putida KT2440; details: quenched after ~100 μM O2 consumed; for Coupling Substrate/O2: ratio of aromatic substrate consumed:O2 consumed; for Coupling Product/O2: ratio of product produced:O2 consumed
# Experimental: The ability of VanAB to catalyze the O-demethylation of VA, SA, and 3MGA was evaluated first. Using an HPLC-based assay, the enzyme transformed VA, SA, and 3MGA to PCA, 3MGA, and GA, respectively (see FIG. 14). When reactions were quenched after ˜100 μM of O2 was consumed, the amounts of substrate consumed, and product detected, were equal to the amount of O2 consumed within error (see Table 3). […] However, in the absence of VanA, VanB consumed NADH and O2 to produce H2O2 in the presence of SA. This adventitious consumption of NADH and O2 was not observed in the presence of VA or 3MGA. Further, in reactions containing 2 μM VanB, 1 μM VanA completely outcompeted the reaction of SA with VanB.
# HPLC characterization of transformation products and flavin content: Oxygenase turnover and VanB flavin content were evaluated using a Waters 2695 Separation HPLC module (Milford, MA) equipped with a Waters 2996 photodiode array detector. VanAB reactions contained ˜1 μM VanA, ˜1 μM VanB and 200 μM substrate in air-saturated HEPES (I=0.1 M, pH 7.5). Reactions were incubated for 30 min at 25° C., quenched with glacial acetic acid (final concentration 10% (v/v)), then centrifuged and filtered (0.2 μm) to remove protein. Substrates and products were resolved using a 250×4.6 mm Luna 5 m C18(2) column (Phenomenex, Torrance, CA) and a linear gradient of 0.1% formic acid and methanol. Compound amounts were assessed using integrated peak areas at 260 nm and standard curves for each compound.
# [6] = substrate: O=C(O)c1cc(O)c(O)c(O)c1; experiment: PcaHG steady-state kinetics, oxygraph and spectrophotometric assays; type: biochemical, P. putida KT2440; details: other: air-saturated HEPES (I = 0.1M), pH 7.5, 25° C
# Experimental: as §4, §5
# [7] = substrate: O=C(O)c1cc(O)c(O)c(O)c1; experiment: GalA steady-state kinetics, O2 consumption (oxygraph); type: biochemical, P. putida KT2440; details: other: air-saturated 40 mM MOPS, 80 mM NaCl (I = 0.1M, pH 7.0), 30° C
# Experimental: Steady-state kinetic analyses: Kinetic assays were performed by monitoring the consumption of O2 using a Clark-type polarographic O2 electrode OXYG1 (Hansatech) connected to a circulating water bath. […] GalA assays were performed in 40 mM MOPS, 80 mM NaCl (I=0.1 M, pH 7.0) at 30° C. The electrode was calibrated daily according to the manufacturer's instructions using air-saturated buffer and water depleted of 02 via addition of sodium hydrosulfite. Stock solutions were prepared fresh daily. The background rate of O2-consumption was recorded prior to initiating the reaction and was subtracted from the measured reaction rate. Steady-state kinetic parameters were evaluated by fitting the Michaelis-Menten equation to the data using the least-squares fitting of LEONORA.
# Stock solutions of the substrates were made in dimethylsulfoxide (DMSO). The final concentration of DMSO in the assay solutions was <1% (v/v). […] The reaction was initiated by adding 0.05 μM GalA.
# [8] = substrate: COc1cc(C(=O)O)cc(O)c1O; experiment: GalA inactivation kinetic analyses during turnover; type: biochemical; details: other: calculated from j3^app and partition ratio, MOPS (I = 0.1M, pH 7.0), 30° C
# Text: as §1
# Inactivation kinetic analyses: GalA inactivation assays were performed by monitoring consumption of 02 using OXYG1 as described in Steady-state kinetic analyses. […]
# as §2, §3
molecule,measurement,setting,value
"COc1cc(C(=O)O)cc(OC)c1O [SA, syringate]",toxicity to P. putida KT2440 compared with VA,[1],more toxic
same,growth at 120 mM substrate,[1],able to grow
"O=C(O)c1ccc(O)c(O)c1 [PCA, protocatechuate]",specific activity of purified PcaHG,[2],3.8 U/mg
same,kcat^app,"[2]; air-saturated HEPES (I = 0.1M), pH 7.5, 25° C",0.95 ± 0.03 s⁻¹
same,Km,"[2]; air-saturated HEPES (I = 0.1M), pH 7.5, 25° C, read-out: KM^app",33 ± 2 µM
"COc1cc(C(=O)O)cc(O)c1O [3MGA, 3-O-methylgallate]",apparent specificity of VanAB relative to that for VA,[3]; O-demethylation,~1%
same,cleavage by PcaHG,[2]; oxygraph and spectrophotometric assays,did not detectably cleave
same,"apparent rate constant of inactivation of GalA, higher than for GA",[4],less than 50%
same,kcat^app relative to that for GA,[4],~0.025%
same,partition ratio relative to that for GA,[4],0.2%
same,j3^app (apparent rate constant of inactivation during turnover),"[4]; air-saturated 40 mM MOPS, 80 mM NaCl (I = 0.1M, pH 7.0), 30° C",3.8 ± 0.3 ×10^−2 s^−1
same,Partition Ratio,[4]; calculated from the O2 consumption for a given amount of GalA,3.3 ± 0.6
same,Coupling Substrate/O2,[5],1.0 ± 0.1 mol:mol
same,Coupling Product/O2,[5],1.1 ± 0.2 mol:mol
"COc1cc(C=O)cc(OC)c1O [SAL, syringaldehyde]",toxicity to P. putida KT2440 compared with VA,[1],more toxic
"COc1cc(C(=O)O)ccc1O [VA, vanillate]",apparent specificity of VanAB,[3]; 0.4 μM VanA,~200000 s⁻¹ M⁻¹
same,growth at 120 mM substrate,[1],not
same,Coupling Substrate/O2,[5],1.3 ± 0.2 mol:mol
same,Coupling Product/O2,[5],1.1 ± 0.1 mol:mol
B1,Km,[6],15 ± 2 µM
same,kcat,[6],0.0675 ± 0.0003 s⁻¹
same,kcat/Km,[6],0.51 ± 0.06 ×10^4 s^−1 · M^−1
B2,Km,[7],59 ± 5 µM
same,kcat,[7],52 ± 4 s⁻¹
same,kcat/Km,[7],90 ± 10 ×10^4 s^−1 · M^−1
same,kcat,[8],0.012 ± 0.002^d s^−1
